# Results reported in patent US6916925B1, “Dye labeled imidazoquinoline compounds” (3M Innovative Properties Co., priority 1999, dated 2005).
# Key:
# [1] = test system: Peripheral blood mononuclear cells (PBMCs); assay: Cytokine Induction in Human Cells, Test Method 2 (IFN-α and TNF-α by ELISA); format: cell-based; parameters: key: +: indicates that the compound induced the indicated cytokine at that particular concentration; −: indicates that the compound did not induce the indicated cytokine at that particular concentration; conditions: 18 to 24 hours
# Text: An in vitro human blood cell system is used to assess cytokine induction. Activity is based on the measurement of interferon and tumor necrosis factor (α) (IFN and TNF, respectively) secreted into culture media as described by Testerman et. al. In “Cytokine Induction by the Immunomodulators Imiquimod and S-27609”, Journal of Leukocyte Biology, 58, 365-372 (September, 1995).
# Whole blood from healthy human donors is collected by venipuncture into EDTA vacutainer tubes. Peripheral blood mononuclear cells (PBMCs) are separated from whole blood by density gradient centrifugation using Histopaque®-1077. The PBMCs are washed twice with -Hank's Balanced Salts Solution and then are suspended at 3-4×10^6 cells/mL in RPMI complete. The PBMC suspension is added to 48 well flat bottom sterile tissue culture plates (Costar, Cambridge, Mass. or Becton Dickinson Labware, Lincoln Park, N.J.) containing an equal volume of RPMI complete media containing test compound.
# The compounds are solubilized in dimethyl sulfoxide (DMSO). The DMSO concentration should not exceed a final concentration of 1% for addition to the culture wells. The compounds are generally tested at concentrations ranging from 0.12 to 30 μM.
# The solution of test compound is added at 60 μM to the first well containing RPMI complete and serial 3 fold dilutions are made in the wells. The PBMC suspension is then added to the wells in an equal volume, bringing the test compound concentrations to the desired range (0.12 to 30 μM). The final concentration of PBMC suspension is 1.5-2×10^6 cells/mL. The plates are covered with sterile plastic lids, mixed gently and then incubated for 18 to 24 hours at 37° C. in a 5% carbon dioxide atmosphere.
# Following incubation the plates are centrifuged for 5-10 minutes at 1000 rpm (˜200×g) at 4° C. The cell-free culture supernatant is removed with a sterile polypropylene pipet and transferred to sterile polypropylene tubes. Samples are maintained at −30 to −70° C. until analysis. The samples are analyzed for interferon (α) and for tumor necrosis factor (α) by ELISA
# Interferon (α) concentration is determined by ELISA using a Human Multi-Species kit from PBL Biomedical Laboratories, New Brunswick, N.J. Results are expressed in pg/mL.
# Tumor necrosis factor (α) (TNF)concentration is determined using ELISA kits available from Genzyme, Cambridge, Mass.; R&D Systems, Minneapolis, Minn.; or Phanningen, San Diego, Calif. Results are expressed in pg/mL.
# The labeled compounds of Examples 2 and 3 were tested for their ability to induce cytokine biosynthesis using Test Method 2 described above.
# [2] = test system: Peripheral blood mononuclear cells (PBMCs); assay: Cytokine Induction in Human Cells, Test Method 1 (IFN by A549/encephalomyocarditis bioassay, TNF by ELISA); format: cell-based; conditions: 24 hours
# Text: An in vitro human blood cell system is used to assess cytokine induction by compounds of the invention. Activity is based on the measurement of interferon and tumor necrosis factor (α) (IFN and TNF, respectively) secreted into culture media as described by Testerman et. al. in “Cytokine Induction by the Immunomodulators Imiquimod and S27609”, Journal of Leukocyte Biology, 58, 365-372 (September, 1995).
# Whole blood from healthy human donors is collected by venipuncture into EDTA vacutainer tubes. Peripheral blood mononuclear cells (PBMCs) are separated from whole blood by Histopaque®-1077 (Sigma Chemicals, St. Louis, Mo.) density gradient centrifugation. The PBMCs are washed twice with Hank's Balanced Salts Solution (Sigma) and are then suspended at 2×10^6 cells/mL in RPMI 1640 medium containing 10% fetal bovine serum, 2 mM L-glutamine and 1% penicillin/streptomycin solution (RPMI complete). 1 mL portions of PBMC suspension are added to 12 or 24 well flat bottom sterile tissue culture plates.
# The compounds are solubilized in ethanol, dimethyl sulfoxide or pyrogen free water then diluted with tissue culture water, 0.01N sodium hydroxide or 0.01N hydrochloric acid (The choice of solvent will depend on the chemical characteristics of the compound being tested.). Ethanol or DMSO concentration should not exceed a final concentration of 1% for addition to the culture wells. The compounds are generally tested using a concentration range from about 0.01 μg/mL to about 50 μg/mL.
# The solution of test compound is added to the wells containing 1 ml of PBMCs in media. The plates are covered with plastic lids, mixed gently and then incubated for 24 hours at 37° C. with a 5% carbon dioxide atmosphere.
# Following incubation the cell-free culture supernatant is removed with a sterile polypropylene pipet and transferred to a 12×75 mm polypropylene tube. The tubes are then centrifuged at 1000 rpm ([…]) for 10 to 15 minutes at 4° C. The supernatant is removed and placed into 2 mL sterile freezing vials. Samples are maintained at −70° C. until analyzed for cytokines.
# Interferon concentrations are determined by bioassay using A549 human lung carcinoma cells challenged with encephalomyocarditis. The details of the bioassay method have been described by G. L. Brennan and L. H. Kronenberg in “Automated Bioassay of Interferons in Micro-test Plates”, Biotechniques, June/July, 78, 1983, incorporated herein by reference. Briefly stated the method is as follows: A549 cells are incubated with dilutions of IFN standard or test samples at 37° C. for 24 hours. The incubated cells are then infected with an inoculum of encephalomyocarditis virus. The infected cells are incubated for an additional 24 hours at 37° C. before quantifying for viral cytopathic effect. The viral cytopathic effect is quantified by staining of the wells with a vital dye such as crystal violet followed by visual scoring of the plates. Results are expressed as alpha reference units/mL based on the value obtained for an NIH Human Leukocyte IFN standard.
# Tumor necrosis factor (α) (TNF) concentration is determined using an ELISA kit available from Genzyrne, Cambridge, Mass. The results are expressed as pg/ml.
# The labeled compound of Example 1 and the unlabeled intermediate (2-(4-amino-2-ethoxymethyl-1H-imidazo[4,5-c]quinolin-1-yl)ethaneamine trihydrochloride) were tested side by side for their ability to induce cytokine biosynthesis using Test Method 1 described above. The compound of Example 1 was solubilized in ethanol. The unlabeled intermediate was solubilized in tissue culture water.
# [3] = test system: human peripheral blood mononuclear cells; assay: Flow Cytometry Analysis: binding to mononuclear cells by fluorescence; format: cell-based; conditions: for binding to human peripheral blood mononuclear cells (fluorescence intensity histogram): FACScan flow cytometer
# Description: Whole blood was collected by venipuncture into EDTA vacutainer tubes from healthy human donors. PBMCs were separated from whole blood by ficoll hypaque (Sigma Chemicals, St. Louis, Mo.) density gradient centrifugation as described in Testerman. The PBMCs were suspended at 2×10^6 cells/mL in RPMI 1640 medium containing 10% fetal bovine serum, 2 mM L-glutamine and penicillin/streptomycin solution (RPMI complete). […] Following incubation the cells were washed two times with staining buffer (Dulbecco's Phosphate Buffered Saline without calcium and magnesium, 1% heat inactivated fetal bovine serum, and 0.1% sodium azide). The cells were suspended in staining buffer and transferred to 12×75 mm polystyrene tubes for analysis by flow cytometry. Binding to mononuclear cells was determined by fluorescence using a FACScan flow cytometer (purchased from Becton Dickinson).
# The histograms of FIGS. 1 and 2 plot the fluorescence intensity with the more highly fluorescent cell populations being seen further to the right. The peak area labeled as M3 in the histograms indicates the fluorescence binding to the monocyte population in the peripheral blood mononuclear cells.
SMILES,IFN induction ([1]; concentration 0.014 μg/ml),TNF induction ([1]; concentration 0.014 μg/ml),IFN induction ([1]; concentration 0.041 μg/ml),TNF induction ([1]; concentration 0.041 μg/ml),IFN induction ([1]; concentration 0.12 μg/ml),TNF induction ([1]; concentration 0.12 μg/ml),IFN induction ([1]; concentration 0.37 μg/ml),TNF induction ([1]; concentration 0.37 μg/ml),IFN induction ([1]; concentration 1.11 μg/ml),TNF induction ([1]; concentration 1.11 μg/ml),IFN induction ([1]; concentration 3.33 μg/ml),TNF induction ([1]; concentration 3.33 μg/ml),IFN induction ([1]; concentration 10 μg/ml),TNF induction ([1]; concentration 10 μg/ml),IFN induction ([1]; concentration 30 μg/ml),TNF induction ([1]; concentration 30 μg/ml),melting point [°C],IFN ([2]; concentration 0.1 μg/ml) [U/ml],TNF ([2]; concentration 0.1 μg/ml) [pg/mL],IFN ([2]; concentration 0.3 μg/ml) [U/ml],also measured
COCCc1nc2c(N)nc3ccccc3c2n1CCCCNC(=S)Nc1ccc(-c2c3ccc(=O)cc-3oc3cc(O)ccc23)c(C(=O)O)c1 [Example 2],−,−,−,−,−,−,−,−,−,−,−,+,+,+,+,+,> 245,,,,
"CCOCc1nc2c(N)nc3ccccc3c2n1CCN.Cl.Cl.Cl [Unlabeled Intermediate, 2-(4-amino-2-ethoxymethyl-1H-imidazo[4,5-c]quinolin-1-yl)ethaneamine trihydrochloride]",,,,,,,,,,,,,,,,,,421,0,2878,TNF ([2]; concentration 0.3 μg/ml): 0 pg/mL; IFN ([2]; concentration 1 μg/ml): 2878 U/ml; TNF ([2]; concentration 1 μg/ml): 49 pg/mL; IFN ([2]; concentration 3 μg/ml): 81 U/ml; TNF ([2]; concentration 3 μg/ml): 538 pg/mL; IFN ([2]; concentration 10 μg/ml): 140 U/ml; TNF ([2]; concentration 10 μg/ml): 2640 pg/mL
"Cc1cc(C)n2c1C=C1C=CC(CCC(=O)NCCCCCC(=O)ON3C(=O)CCC3=O)=[N+]1[B-]2(F)F [BODIPY fluorophore, 6-((4,4-difluoro-5,7-dimethyl4-bora-3a,4a-diaza-s-indacene-3-propionyl)amino)hexanoic acid, succinimidyl ester, reference compound]",,,,,,,,,,,,,,,,,,,,,binding to human peripheral blood mononuclear cells (fluorescence intensity histogram) ([3]; incubated 1 hour at 37° C.): does not
"CCOCc1nc2c(N)nc3ccccc3c2n1CCNC(=O)CCCCCNC(=O)CCc1ccc2n1[B-](F)(F)[N+]1=C(C)C=C(C)C1=C2 [Example 1, N-[2-(4-Amino-2-ethoxymethyl-1H-imidazo[4,5-c]quinolin-1-yl)ethyl]-6-[(4,4-difluoro-5,7-dimethyl-4-bora-3a,4a-diaza-s-indacene-3-propionyl)amino]hexanoamide]",,,,,,,,,,,,,,,,,,554,46,2878,"IFN ([2]; concentration 0.01 μg/ml): 16 U/ml; TNF ([2]; concentration 0.01 μg/ml): 0 pg/mL; IFN ([2]; concentration 0.03 μg/ml): 47 U/ml; TNF ([2]; concentration 0.03 μg/ml): 42 pg/mL; TNF ([2]; concentration 0.3 μg/ml): 73 pg/mL; IFN ([2]; concentration 1 μg/ml): 421 U/ml; TNF ([2]; concentration 1 μg/ml): 369 pg/mL; IFN ([2]; concentration 3 μg/ml): 62 U/ml; TNF ([2]; concentration 3 μg/ml): 869 pg/mL; binding to human peripheral blood mononuclear cells (fluorescence intensity histogram) ([3]; incubated 1 hour at 37° C.): binds to human peripheral blood mononuclear cells; binding to monocytes compared with other PBMCs ([3]; incubated 1 hour at 37° C., peak area M3 = monocyte population): monocytes bind more effectively than other PBMCs; binding to monocytes ([3]; incubated with human PBMCs at 4° C. for 1 hour): did not show significant binding"
"CCCCc1nc2c(N)nc3ccccc3c2n1CCNC(=S)Nc1ccc(-c2c3ccc(=O)cc-3oc3cc(O)ccc23)c(C(=O)O)c1 [Example 3, 5-{[({2-[4-Amino-2-butyl-1H-imidazo[4,5-c]quinolin-1-yl]ethyl}amino)carbonthioyl]amino}-2-(6-hydroxy-3-oxo-3H-xanthen-9-yl)benzoic Acid]",−,−,−,−,−,−,−,−,−,−,−,−,+,−,+,+,> 245,,,,
